Patent US20140302027A1, “METHODS OF TREATING PERIODONTAL INFLAMMATION AND PERIODONTAL BONE LOSS” (United States of America as Represented by the Secretary, …, priority 2011, published 2014)

Tests used:
[1] = system: ligature-induced periodontal bone loss; assay: Ligature-induced periodontitis model, periodontal bone loss; format: in vivo, mice; settings: for inhibition of induction of bone loss relative to no-treatment: 1 μg microinjected in gingiva daily (FIG. 26a)
Protocol: FIG. 26. Inhibition of bone loss by Del-1 and other treatments that block LFA-1 or IL-17. Ligature-induced periodontal bone loss was assessed in mice treated as follows: (a) 18-month-old (left) and 10-week-old mice (right) were microinjected in the gingiva with Del-1-Fc or Fc control (1 μg) or with anti-IL-17A mAb or isotype control (1 or 10 μg). (b) WT and Itgal^−/− mice received Del-1-Fc or Fc control as above. (c) LFA878 was locally administered at an equal molar concentration with Del-1-Fc (corresponding to 8.4 ng and 1 μg, respectively) or at the indicated higher doses. (d) Anti-LFA-1 or IgG2a control were microinjected at either 1 μg, as was Del-1-Fc, or at 10 μg. (e) Del-1-Fc, anti-LFA-1, anti-ICAM-1, ICAM-1-Fc and their controls were i.v. administered at 50 μg. Data are means±SD (n=5-6 mice per group) from one of two (a,c,e) or three (b,d) independent and representative experiments. Data represent % inhibition of bone loss, which was calculated using the formula: ([Bone loss in the absence of inhibitor−Bone loss in the presence of inhibitor]/Bone loss in the absence of inhibitor)×100. *P<0.05; **P<0.01. NS, not significant.
The ligature-induced periodontitis model was used to determine the efficacy of potential therapeutic interventions (see below). Specifically, bone loss was induced by tying a 5-0 silk ligature around the maxillary left second molar, placing the ligature in the gingival sulcus; this treatment induces bone loss in conventional (but not germ-free) mice due to massive bacterial accumulation in the ligated teeth (Graves (2008)). The contralateral molar tooth in each mouse was left unligated (baseline control). Bone loss was examined 5 days after placement of the ligatures, which remained in place in all mice during the experimental period. Using the VIA-170K system, bone measurements were performed on the ligated second molar (3 sites corresponding to mesial cusp, palatal groove, and distal cusp) and the affected adjacent regions (sites corresponding to distal cusp and distal groove of the first molar, and palatal cusp of the third molar). To calculate bone loss, the 6-site total CEJ-ABC distance for the ligated side of each mouse was subtracted from the 6-site total CEJ-ABC distance of the contralateral unligated side of the same mouse.
To determine its protective efficacy in ligature-induced periodontitis, Del-1 was used in the form of a fusion protein with the Fc region of human IgG1 (Del-1-Fc) (GenScript). Del-1-Fc (1 μg) was microinjected into the palatal gingiva of the ligated second maxillary molar, one day before placement of the ligature and every day thereafter until the day before sacrifice on day 5. In other experiments, Del-1-Fc was administered systemically by i.v. injection (50 μg), following the same timing schedule as above. The same protocols were used to determine the effect of local (or systemic) administration of mAbs to LFA-1 (clone M17/4, rat IgG2a; BioLegend), ICAM-1 (clone YN1, IgG2b; Biolegend), IL-17A (clone M210, rat IgG2a; Amgen), or IL-17F (clone 316016, rat IgG2a; R&D Systems). Recombinant mouse ICAM-1 fused to the Fc region of human IgG1 (ICAM-1-Fc) as well as an LFA-1 antagonist (LFA878; kindly provided by Novartis) (Weitz-Schmidt (2004)) were also used in bone loss inhibition experiments. Purified azide-free rat IgG2a or IgG2b (BioLegend) and recombinant human IgG1 Fc (R&D Systems) were used as controls for the mAbs and Del-1-Fc, respectively.

[2] = system: P. gingivalis (Pg)-induced bone loss; assay: P. gingivalis-induced periodontal bone loss mouse model; format: in vivo, mice; settings: local gingival injections (FIG. 2C)
[3] = system: Del-1 expression in human endothelial cells; assay: Del-1 mRNA expression in HUVEC stimulated with human IL-17A; format: cell-based
Description: FIG. 21. IL-17 downregulates Del-1 expression. (a) Gingival Del-1 mRNA expression in wild-type (WT) and IL17ra^−/− mice determined by qPCR. (b) Sagittal sections of interdental gingiva of WT and Il17ra^−/− mice were stained for Del-1; shown are representative fluorescent confocal images (upper row) and their overlays with corresponding DIC images (lower row). Bar, 50 μm; T, tooth; G, gingiva; S, sulcus. (c) The fluorescence intensities of these and additional representative images from independent mice (5 per group) were quantified using ImageJ analysis. (d) Anti-IL-17A mAb and IgG2a control were microinjected into the gingiva and Del-1 mRNA expression was determined by qPCR. (e) Gingival IL-17A mRNA expression was determined in young (8-10 weeks) and old (18 months) mice using qPCR. (f) Linear-regression analysis of Del-1 versus IL-17A expression in old mice. (g) Determination of Del-1 mRNA expression and MPO amounts in the gingiva of indicated BM chimeric mice (donor BM→lethally irradiated recipient). (h) HUVEC were stimulated with or without human IL-17A and Del-1 mRNA expression was quantified by qPCR (pooled data from four independent experiments). […]
Total RNA was extracted from excised gingival tissue or cultured cells using the PerfectPure RNA cell kit (5 Prime, Fisher) and quantified by spectrometry at 260 and 280 nm. […]

[4] = system: human neutrophils; assay: Transmigration assay of human neutrophils through HUVEC monolayer; format: cell-based; settings: 5 μg/ml, towards IL-8 (20 ng/ml)
Protocol: FIG. 14. LFA-1 dependence of Del-1 deficiency-associated inflammation and bone loss. (a) Twenty-week-old C57BL/6 wild-type (WT) mice or mice deficient in the indicated molecules were assessed for bone loss relative to 5-week-old WT mice (zero baseline); the dotted line indicates the bone heights of 20-week-old WT mice for ease of comparison. (b) Sagittal sections of interdental gingiva from the same mice were stained for Ly6G; shown are representative overlays of DIC and fluorescent confocal images. (c) The fluorescence intensities of these and additional representative images from independent mice (5 per group) were quantified using ImageJ analysis. (d) Dissected gingiva from the indicated mice were processed for ELISA determination of MPO protein (left) or qPCR determination of PGRP1 transcript abundance (right). (e) Transmigration of human neutrophils through an endothelial cell monolayer (HUVEC) towards IL-8 (20 ng/ml) in the bottom well was determined with or without soluble human Del-1 (5 μg/ml), BSA (5 μg/ml), anti-LFA-1 mAb (10 μg/ml) or IgG1 control (10 μg/ml). […]
Transmigration assays were performed as previously described (Ley (2007)), using 6.5-mm Transwells with an 8-μm pore size (Corning). […] After 60 min incubation at 37° C., the number of transmigrated cells in the lower compartment was measured (Ley (2007)). […]

`CC[C@H](C)C(=O)O[C@H]1C[C@@H](C)C=C2C=C[C@H](C)[C@H](CC[C@@H]3C[C@H](CC(=O)NC)N(Cc4ccc(O)c(OC)c4)C(=O)O3)[C@H]21` [LFA878, reference compound] was tested. Which “protection against bone loss compared with Del-1-Fc” value ([1]; local, equal molar amounts (8.4 ng vs 1 μg Del-1-Fc) (FIG. 26c)) did it give?
The value was “less protective than Del-1-Fc”.

What about the “protection against bone loss compared with Del-1-Fc” value ([1]; locally administered at 1 μg (FIG. 26c)) of the same molecule?
The value was “almost (but not quite) comparable to Del-1-Fc”.

With `O=C(NCc1cccc(O)c1)c1cc(Cl)c(C(=O)N[C@@H](CNC(=O)c2cc(O)cc(O)c2)C(=O)O)c(Cl)c1` [XVA143] as the molecule, how does the “P. gingivalis (Pg)-induced bone loss” value [2] read?
Its value is “inhibited”.

For “Del-1-Fc: Del-1 as a fusion protein with the Fc region of human IgG1 (GenScript); SEQ ID NO: 5”, which “inhibition of induction of bone loss relative to no-treatment” value ([1]; 10-week-old mice) is on record?
Its value is “≈ 80%”.

What about the “inhibition of bone loss” value ([1]; 18-month old mice, microinjected in palatal gingiva daily from day -1 to day 4 (FIG. 7)) of the same molecule?
Its value is “significant inhibition of bone loss”.

And the “inhibition of induction of bone loss relative to no-treatment” value ([1]; 18-month-old mice)?
Its value is “inhibited”.

What about the “effect against bone loss” value ([1]; Itgal−/− mice (LFA-1 deficient), local (FIG. 26b)) of the same molecule?
Its value is “minor, but not statistically significant, effect”.

What about the “potency in inhibiting periodontal bone loss versus other LFA-1-ICAM-1 inhibitors” value ([1]; given locally or systemically) of the same molecule?
Its value is “more potent”.

For “human IL-17A: human IL-17A cytokine used to stimulate HUVEC”, which “Del-1 expression in human endothelial cells (HUVEC)” value [3] is on record?
Its value is “inhibited”.

B1: human Del-1: soluble human Del-1 from R&D Systems; human Del-1 amino acid sequence SEQ ID NO: 1 (protein, listed as Homo sapiens)
chain: MKRSVAVWLLVGLSLSVPQFGKGDICDPNPCENGGICLPGLADGSFSCECPDGFTDPNCSSVVEVASDEEEPTSAGPCTPNPCHNGGTCEISEAYRGDTFIGYVCKCPRGFNGIHCQHNINECEVEPCKNGGICTDLVANYSCECPGEFMGRNCQYKCSGPLGIEGGIISNQQITASSTHRALFGLQKWYPYYARLNKKGLINAWTAAENDRWPWIQINLQRKMRVTGVITQGAKRIGSPEYIKSYKIAYSNDGKTWAMYKVKGTNEDMVFRGNIDNNTPYANSFTPPIKAQYVRLYPQVCRRHCTLRMELLGCELSGCSEPLGMKSGHIQDYQITASSIFRTLNMDMFTWEPRKARLDKQGKVNAWTSGHNDQSQWLQVDLLVPTKVTGIITQGAKDFGHVQFVGSYKLAYSNDGEHWTVYQDEKQRKDKVFQGNFDNDTHRKNVIDPPIYARHIRILPWSWYGRITLRSELLGCTEEE
How did the “LFA-1-dependent transendothelial migration of human neutrophils” value [4] turn out when B1 was run?
Its value is “inhibited”.
